In US20200131495A1, “PROTEINS DERIVED FROM CLPB AND USES THEREOF” (priority 2017, published 2020):

How the values were obtained:
[1] = test system: intestinal tissues from rats (colons and ileums); assay: PYY secretion experiment in rat colons and ileums; type: cell-based; conditions: 10 nM, 20 min, control PBS, FIG. 6
Method: Colons and ileums were removed from male rats (Janvier Labs, Genest-Saint-Isle, France). They were washed with ice-cold PBS, then with ice-cold L-15 (Leibowitz) medium (PAA, Yeovil, UK). Then they were digested with 0.4 mg/mL collagenase XI (Sigma, Poole, UK) in High-Glucose DMEM (+1% L-Glutamine+1% Penicillin+1% Streptomycin+1% and non-essential amino acids) at 37° C. during 10 min. Cells suspensions were centrifuged (10 min at 400 g) and the pellets were resuspended in High-Glucose DMEM (the same that previously but with 10% Fetal Bovine Serum (FBS). Cell suspensions were filtered through a nylon mesh (pore size 100 Jpm) (Merck Millipore, Mass., USA) and plated onto 24 well, 1% Matrigel-coated plates (Corning, N.Y., US). The plates were incubated overnight at 37° C. in an atmosphere of […] and 5% CO2.
After 24 hours of culture, cells were incubated for 20 min in a water bath with secretion buffer (4 mM KCl, 138 mM NaCl, 1.2 mM NaHCO3, 1.2 mM NaH2PO4, 2.6 mM CaCl2), 1.2 mM MgCl2 and 10 mM HEPES) adjusted at pH 7.4) and full-length ClpB or the ˜25 kDa fragment at a concentration of 10 nM. […]
After incubation, the cells were treated with lysis buffer (50 mmol/L Tris-HCl, 150 mmol/L NaCl, 1% IGEPAL CA-630, 0.5% deoxycholic acid+cocktail of protease inhibitor tablets complete without EDTA) to extract intracellular peptides. […] Lysates were stored at −80° C. if not analyzed immediately. […]

[2] = Food intake of mice in BioDAQ cages after i.p. or oral administration; type: in vivo; conditions: for food intake in mice, oral administration: 60 pmol in 200 μL, FIG. 8
Method: Male C57/B16 mice were placed in the BioDAQ mouse cages (Research Diets, Inc., New Brunswick, N.J.) alone to measure the food intake. Each mouse was administered either physiological serum (n=6), full-length ClpB, or fragment of ˜25 kDa.
Two modes of administration were tested: intraperitoneal (i.p.) injection at a concentration of 2 pmol in a volume of 200 μL (n=8), and oral administration at a concentration of 60 pmol in a volume of 200 μL (n=10).

anti-α-MSH antibody = assay: Western blot revealed with anti-α-MSH antibody; type: binding, rabbit; conditions: FIG. 3 (trypsinised ClpB); FIG. 4 (colic mucosa, hypothalamus, plasma of mice and rats)
Method: First the fragmentation was performed on different conditions: ClpB diluted at 1/10 (from the stock at 5 mg/mL) and ClpB 1/10 with 0.0025% trypsin. Those different conditions were placed during 20 minutes at 37° C. After incubation, the fragmentation was immediately stopped by placing tubes on ice and western blot was performed.
After fragmentation, Leamli solution without J-mercaptoethanol was added into tubes to perform western on 20% acrylamide SDS gel in Tris-Glycine buffer (BioRad, Hercules, USA) and transferred to a nitrocellulose membrane (GE Healthcare, Orsay, France). Then, the membrane was blocked for at least 1 h at room temperature with 5% (w/v) non-fat dry milk in TBS (10 mmol/L Tris, pH 8; 150 mmol/L NaCl) plus 0.05% (w/v) Tween 20. After blocking, the […] The membrane was incubated overnight at 4° C. with rabbit polyclonal anti-α-MSH antibodies (1:1000, Phoenix Pharmaceuticals). After three washes in a blocking solution of 5% (w/v) non-fat dry milk in TBS/0.05% Tween 20, membranes were incubated for 1 h with peroxidase-conjugated anti rabbit IgG (1:1000, SantaCruz Biotechnology). […]
Tissues were incubated with extracted buffer (PBS+protease inhibitor (1%)). The volume added depends of sample quantity. […] The supernatant was stored at −80° C. if not analysed immediately. […]

MC1R = MC1R (Mus musculus, UniProt Q01727); conditions: Ericson et al., 2015; cited from earlier work
Sequence of MC1R (Q01727 whole entry): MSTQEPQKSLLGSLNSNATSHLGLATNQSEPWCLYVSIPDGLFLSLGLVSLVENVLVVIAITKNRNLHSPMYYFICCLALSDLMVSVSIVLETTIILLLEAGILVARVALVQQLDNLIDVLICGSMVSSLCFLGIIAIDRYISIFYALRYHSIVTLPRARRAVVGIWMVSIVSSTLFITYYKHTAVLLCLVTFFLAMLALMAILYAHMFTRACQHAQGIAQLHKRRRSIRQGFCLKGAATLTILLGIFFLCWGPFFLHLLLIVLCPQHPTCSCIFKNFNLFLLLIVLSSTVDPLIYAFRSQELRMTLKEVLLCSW

MC3R = MC3R (Mus musculus, UniProt P33033); conditions: Ericson et al., 2015; cited from earlier work
Sequence of MC3R (P33033 whole entry): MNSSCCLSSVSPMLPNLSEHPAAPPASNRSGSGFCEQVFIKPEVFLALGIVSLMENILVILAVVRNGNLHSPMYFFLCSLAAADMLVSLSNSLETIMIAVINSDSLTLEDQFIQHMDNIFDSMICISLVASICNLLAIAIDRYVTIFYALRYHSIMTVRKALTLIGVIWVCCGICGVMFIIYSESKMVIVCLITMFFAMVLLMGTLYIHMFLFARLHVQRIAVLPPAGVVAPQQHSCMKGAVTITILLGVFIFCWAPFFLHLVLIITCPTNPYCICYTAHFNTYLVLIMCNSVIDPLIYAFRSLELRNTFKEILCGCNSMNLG

MCSR = MCSR (Mus musculus, UniProt P41149); conditions: Ericson et al., 2015; cited from earlier work
Sequence of MCSR (P41149 whole entry): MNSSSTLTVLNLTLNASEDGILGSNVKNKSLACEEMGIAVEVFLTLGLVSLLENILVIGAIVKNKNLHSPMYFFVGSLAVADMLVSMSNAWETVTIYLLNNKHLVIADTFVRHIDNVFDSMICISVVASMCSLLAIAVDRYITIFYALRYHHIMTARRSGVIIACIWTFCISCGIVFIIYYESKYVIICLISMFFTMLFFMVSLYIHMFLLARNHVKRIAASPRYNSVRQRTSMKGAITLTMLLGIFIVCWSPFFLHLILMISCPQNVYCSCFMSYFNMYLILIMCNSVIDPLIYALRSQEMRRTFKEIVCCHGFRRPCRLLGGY

MC4R = MC4R (Mus musculus, UniProt P56450); conditions: Ericson et al., 2015; cited from earlier work
Sequence of MC4R (P56450 whole entry): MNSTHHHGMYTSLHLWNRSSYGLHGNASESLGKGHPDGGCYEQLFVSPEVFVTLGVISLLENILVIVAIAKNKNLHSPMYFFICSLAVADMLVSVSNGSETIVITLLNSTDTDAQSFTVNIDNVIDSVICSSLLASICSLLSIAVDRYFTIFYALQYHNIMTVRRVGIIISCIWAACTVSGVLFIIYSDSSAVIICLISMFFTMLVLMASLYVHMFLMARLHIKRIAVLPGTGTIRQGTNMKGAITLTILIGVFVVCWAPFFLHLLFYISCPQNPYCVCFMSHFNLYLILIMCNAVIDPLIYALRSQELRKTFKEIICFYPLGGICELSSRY

Substance	PYY secretion compared to the control [1]	food intake in mice, oral administration [2]	duration of the decrease of food intake ([2]; i.p. 2 pmol and oral 60 pmol in 200 μL, FIGS. 7 and 8)	food intake in mice ([2]; i.p. 2 pmol and oral 60 pmol in 200 μL, FIGS. 7 and 8, compared with full-length ClpB protein)	recognition by anti-α-MSH antibodies (Western blot) (anti-α-MSH antibody)	MC1R agonist activity (MC1R)	activity on MC3R (MC3R)	activity on MCSR (MCSR)	activity on MC4R (MC4R)
full-length ClpB: chaperone protein ClpB (caseinolytic protease B), ˜96 kDa, 857 amino acids, from E. Coli K12	increase PYY secretion	no such effect							
fragment of ˜25 kDa: sequence of ClpB from amino acid 537 to amino acid 756 (SEQ ID NO: 22), produced by trypsinisation of ClpB	increase PYY secretion	decreases food intake	at least 90 min	decreases food intake in mice at least as much as the full-length ClpB protein	revealed with polyclonal anti-α-MSH				
AEIAEVLARWTGIPV (ClpB fragment) [modified short ClpB fragment studied by Ericson et al]						full micromolar MC1R agonist	partial activities	partial activities	not on MC4R
